Laboratory results taken from US20250381254A1, “Augmented Acid Alpha-Glucosidase For The Treatment Of Pompe Disease” (Amicus Therapeutics, Inc., priority 2015, published 2025).
Read-outs that look alike come from different tables or passages of the source. One block for each molecule: values may come before it.

Assays:
[1] = Population PK model of duvoglustat in plasma and tissue; type: in vivo, human; conditions: typical value
Protocol: Concentration-time profiles of miglustat (200 mg) in Pompe disease patients are compared to those obtained following administration of duvoglustat in normal healthy volunteers (dose range: 50, 100, 250, 600, and 1000 mg). Because concentration-time profiles of miglustat in patients with Pompe disease are similar to those observed following dosing of duvoglustat in healthy subjects over 24 h, PK data collected for duvoglustat in peripheral tissues were used as a surrogate to model exposure to miglustat. A two-compartment model with linear elimination is used to characterize the concentration-time profiles of duvoglustat in tissues.

[2] = Specific activity of ATB200 batches; type: biochemical
Protocol: Two batches of ATB200 with different sialic acid content were evaluated for pharmacokinetics and efficacy in Gaa KO mice.

[3] = Plasma GAA activity half-life of ATB200 batches after single IV bolus; type: in vivo, mouse; conditions: GAA activity in plasma, Gaa KO mice
Gaa KO mice [4] = assay: Glycogen reduction by ATB200 batches vs Lumizyme; type: in vivo, mouse; conditions: 2 IV bolus injections every other week, FIGS. 37A-37D
Protocol: In a related study, IV bolus tail vein injections of ATB200 (Batches A and B) and Lumizyme® were given to Gaa KO mice every other week for a total of 2 injections. Glycogen levels in tissues were measured 14 days after last administration.

CIMPR = CIMPR (Homo sapiens, UniProt P11717); assay: CIMPR affinity chromatography of rhGAA; type: binding; conditions: fraction of total enzyme by GAA activity
Protocol: To evaluate the ability of the rhGAA in Myozyme® and Lumizyme®, the only currently approved treatments for Pompe disease, these rhGAA preparations were injected onto a CIMPR column (which binds rhGAA having M6P groups) and subsequently eluted with a free […] gradient. Fractions were collected in 96-well plate and GAA activity assayed by 4MU—α-glucose substrate. The relative amounts of bound and unbound rhGAA were determined based on GAA activity and reported as the fraction of total enzyme.

Gaa KO mice [5] = assay: Cellular dysfunction in Gaa KO mice after 2 administrations; type: in vivo, mouse; conditions: 20 mg/kg ERT every other week, miglustat 10 mg/kg
Protocol: These key muscle proteins require proper protein trafficking to the muscle cell membrane where they function. […] Alglucosidase alfa (Myozyme®) and ATB200 with and without 10 mg/kg miglustat were evaluated in Gaa KO mice at equivalent ERT dose (20 mg/kg) via an every other week dosing schedule. […] In FIGS. 32A-32D, * indicates statistically significant compared to Myozyme® alone.

[6] = 20 to 40 mg/kg alglucosidase alfa with 4 doses of 80 mg miglustat; 13 Pompe subjects; mean; cited from earlier work
[7] = Apparent plasma half-life in vivo

CIMPR, sequence (P11717 41-2491, species assumed): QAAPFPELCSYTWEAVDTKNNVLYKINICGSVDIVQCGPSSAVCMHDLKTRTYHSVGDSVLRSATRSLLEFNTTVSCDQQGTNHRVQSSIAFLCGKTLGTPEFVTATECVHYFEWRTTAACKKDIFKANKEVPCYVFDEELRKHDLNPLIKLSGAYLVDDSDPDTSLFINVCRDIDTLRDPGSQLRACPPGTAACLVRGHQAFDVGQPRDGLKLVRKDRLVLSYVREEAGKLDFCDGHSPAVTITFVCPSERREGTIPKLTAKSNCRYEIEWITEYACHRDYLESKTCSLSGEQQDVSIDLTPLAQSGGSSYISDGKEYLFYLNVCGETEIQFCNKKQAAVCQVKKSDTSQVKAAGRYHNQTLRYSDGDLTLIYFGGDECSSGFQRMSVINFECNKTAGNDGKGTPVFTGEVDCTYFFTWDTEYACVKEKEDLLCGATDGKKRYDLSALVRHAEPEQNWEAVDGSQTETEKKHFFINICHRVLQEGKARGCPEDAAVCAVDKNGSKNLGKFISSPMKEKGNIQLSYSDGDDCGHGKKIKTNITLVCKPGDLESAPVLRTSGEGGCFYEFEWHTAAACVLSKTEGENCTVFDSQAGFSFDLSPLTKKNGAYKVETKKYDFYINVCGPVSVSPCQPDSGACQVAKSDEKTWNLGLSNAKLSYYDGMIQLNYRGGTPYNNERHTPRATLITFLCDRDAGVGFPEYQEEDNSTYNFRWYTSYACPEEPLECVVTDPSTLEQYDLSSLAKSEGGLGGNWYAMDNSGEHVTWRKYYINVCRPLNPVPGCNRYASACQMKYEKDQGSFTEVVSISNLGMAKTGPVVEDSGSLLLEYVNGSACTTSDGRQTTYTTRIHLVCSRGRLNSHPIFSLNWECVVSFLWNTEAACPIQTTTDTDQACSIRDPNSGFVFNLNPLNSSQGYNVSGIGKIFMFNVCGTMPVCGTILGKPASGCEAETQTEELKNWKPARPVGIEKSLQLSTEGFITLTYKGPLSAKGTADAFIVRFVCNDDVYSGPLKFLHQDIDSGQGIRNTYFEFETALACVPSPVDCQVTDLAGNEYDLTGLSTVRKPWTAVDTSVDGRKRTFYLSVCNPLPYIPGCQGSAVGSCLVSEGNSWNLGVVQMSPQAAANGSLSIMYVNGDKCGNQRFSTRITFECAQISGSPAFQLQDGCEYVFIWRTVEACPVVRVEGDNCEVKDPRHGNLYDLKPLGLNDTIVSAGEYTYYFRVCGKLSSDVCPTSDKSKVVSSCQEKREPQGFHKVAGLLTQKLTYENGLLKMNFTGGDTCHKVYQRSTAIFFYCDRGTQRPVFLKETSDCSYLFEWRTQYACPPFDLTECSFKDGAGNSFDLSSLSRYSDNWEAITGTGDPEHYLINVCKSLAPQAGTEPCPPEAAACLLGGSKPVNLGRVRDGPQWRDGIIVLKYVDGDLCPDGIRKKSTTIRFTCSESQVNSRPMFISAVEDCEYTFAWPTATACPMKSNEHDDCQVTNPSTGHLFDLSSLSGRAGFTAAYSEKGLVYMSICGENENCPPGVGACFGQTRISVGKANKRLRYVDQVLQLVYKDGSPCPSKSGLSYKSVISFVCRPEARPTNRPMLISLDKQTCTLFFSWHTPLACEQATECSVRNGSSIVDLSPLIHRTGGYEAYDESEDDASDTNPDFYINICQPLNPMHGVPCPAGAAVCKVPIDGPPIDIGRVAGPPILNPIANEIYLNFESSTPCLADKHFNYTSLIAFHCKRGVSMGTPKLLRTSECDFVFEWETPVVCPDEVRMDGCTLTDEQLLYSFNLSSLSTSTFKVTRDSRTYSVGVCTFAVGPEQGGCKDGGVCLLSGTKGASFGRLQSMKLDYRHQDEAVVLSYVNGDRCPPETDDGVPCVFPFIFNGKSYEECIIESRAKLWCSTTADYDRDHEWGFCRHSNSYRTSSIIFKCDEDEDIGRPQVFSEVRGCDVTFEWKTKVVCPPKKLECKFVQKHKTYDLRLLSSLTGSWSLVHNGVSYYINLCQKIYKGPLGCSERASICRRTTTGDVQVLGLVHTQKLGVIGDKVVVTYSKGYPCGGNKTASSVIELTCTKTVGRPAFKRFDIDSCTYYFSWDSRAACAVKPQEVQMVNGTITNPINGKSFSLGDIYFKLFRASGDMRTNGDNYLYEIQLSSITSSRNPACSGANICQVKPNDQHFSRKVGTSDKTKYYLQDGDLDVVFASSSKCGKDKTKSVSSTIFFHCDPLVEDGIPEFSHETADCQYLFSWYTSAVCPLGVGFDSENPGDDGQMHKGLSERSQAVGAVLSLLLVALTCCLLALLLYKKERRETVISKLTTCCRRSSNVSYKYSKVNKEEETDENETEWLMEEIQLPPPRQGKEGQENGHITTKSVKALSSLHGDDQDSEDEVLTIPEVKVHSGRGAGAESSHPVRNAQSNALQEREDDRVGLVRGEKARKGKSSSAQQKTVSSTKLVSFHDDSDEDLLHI

- clearance ([1]; human, plasma and tissue, read-out: Central compartment clearance (CL2) (converted)): 3.42 mL/min
- clearance ([1]; human, plasma and tissue, read-out: Systemic clearance (CL) (converted)): 157 mL/min
- Vd ([1]; human, plasma and tissue, read-out: Volume of distribution (V)): 44.5 L
- Apparent intercompartment clearance (CLQ) [1]: 40.6 L/h
- Elimination rate constant (Keo) [1]: 0.378
- Intercompartment volume of distribution (VQ) [1]: 61.8 L
- Intercompartment volume of distribution within central compartment (VQ2) [1]: 3390 L
- Lag time [1]: 0.176 h
- Peripheral compartment clearance (CL3) [1]: 88.0 L/h
- Peripheral volume of distribution (V2) [1]: 8.68 L
- Rate constant of absorption (Ka) [1]: 1.10 h⁻¹
Molecule: OC[C@H]1NC[C@H](O)[C@@H](O)[C@@H]1O [duvoglustat, (2R,3R,4R,5S)-2-(hydroxymethyl)piperidine-3,4,5-triol]

Molecule: Batch A: batch of ATB200 with sialic acid 4.0 mol/mol protein and M6P content 3.3 mol/mol protein
- Specific activity [2]: 115831 (nmol nmol 4 mu/mg protein/hr
- Half-life, Mean ± SEM [3]: 30 ± 1.2 min
- glycogen reduction vs Lumizyme® (Gaa KO mice [4]): superior to Lumizyme® in reducing glycogen

Molecule: Batch B: batch of ATB200 with sialic acid 5.4 mol/mol protein and M6P content 2.9 mol/mol protein
- Specific activity [2]: 120929 (nmol nmol 4 mu/mg protein/hr
- Half-life, Mean ± SEM [3]: 36 ± 1.8 min
- glycogen reduction vs Lumizyme® (Gaa KO mice [4]): superior to Lumizyme® in reducing glycogen
- glycogen reduction, Batch B vs Batch A (Gaa KO mice [4]; similar doses): generally more effective in reducing glycogen than Batch A

- rhGAA activity eluted prior to addition of M6P (did not bind to the CIMPR) (CIMPR): 73%
- rhGAA eluted with M6P / containing M6P (CIMPR binding) (CIMPR): 27%
Molecule: Myozyme®: conventional rhGAA product (alglucosidase alfa), Genzyme

Molecule: [199-arginine,223-histidine]prepro-α-glucosidase (human) [alglucosidase alfa]
- autophagy (LC3 II) and lysosomal proliferation (LAMP1) (Gaa KO mice [5]; FIGS. 29-30): negligible effects towards reducing autophagy
- lysosomal glycogen in skeletal muscles (Gaa KO mice [5]; FIGS. 32A-32D): modestly reduced accumulated lysosomal glycogen in skeletal muscles
- increase in acid α-glucosidase activity exposure (AUC), co-administration vs alglucosidase alfa alone [6]: 6.8 fold
- apparent plasma half-life t1/2 [7]: ~60 min
